Experimental data as given in ChEMBL document CHEMBL1201862, “PubChem BioAssay data set” (2004).
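How tested: cells in 96-well plates exposed to compound for 48 hours at five concentrations. At the GI50, growth is halved.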 The source made the active and inactive calls. Rule as the data show it: active = GI50 up to about 1.1 µM and inactive = higher.

Legend:
Test in all cases: NCI tumour cell line growth inhibition, 48 h
CCRF-CEM = test system: CCRF-CEM
COLO 205 = test system: COLO 205
HCT-116 = test system: HCT-116
HCT-15 = test system: HCT-15
HOP-92 = test system: HOP-92
IGROV-1 = test system: IGROV-1
K562 = test system: K562
LOX IMVI = test system: LOX IMVI
MOLT-4 = test system: MOLT-4
Malme-3M = test system: Malme-3M
NCI-H23 = test system: NCI-H23
OVCAR-4 = test system: OVCAR-4
SK-MEL-2 = test system: SK-MEL-2
SK-MEL-5 = test system: SK-MEL-5
SN12C = test system: SN12C
SR = test system: SR
SW-620 = test system: SW-620
U-251 = test system: U-251
UACC-62 = test system: UACC-62
DU-145 = test system: DU-145

Structure (SMILES)	GI50 (CCRF-CEM)	GI50 (COLO 205)	GI50 (HCT-116)	GI50 (HCT-15) [µM]	GI50 (HOP-92)	GI50 (IGROV-1)	GI50 (K562)	GI50 (LOX IMVI)	GI50 (MOLT-4)	GI50 (Malme-3M)	GI50 (NCI-H23)	GI50 (OVCAR-4)	GI50 (SK-MEL-2)	GI50 (SK-MEL-5)	GI50 (SN12C)	GI50 (SR)	GI50 (SW-620)	GI50 (U-251)	GI50 (UACC-62)	GI50 (DU-145)
[N-]=[N+]=Nc1ncnc2c1sc(=S)n2-c1ccccc1	> 100 µM (inactive)	> 100 µM (inactive)	> 100 µM (inactive)	> 100	> 100 µM (inactive)	> 100 µM (inactive)	> 100 µM (inactive)	> 100 µM (inactive)	> 100 µM (inactive)	> 100 µM (inactive)	> 100 µM (inactive)	> 100 µM (inactive)	> 100 µM (inactive)	> 100 µM (inactive)	> 100 µM (inactive)	> 100 µM (inactive)	> 100 µM (inactive)	> 100 µM (inactive)	> 100 µM (inactive)	–
O=c1ccn(C2OC(CN(O)CCC3C(CO)OC(n4ccc(=O)[nH]c4=O)C3O)C(O)C2O)c(=O)[nH]1 (centres undefined)	> 100 µM (inactive)	> 100 µM (inactive)	> 100 µM (inactive)	> 100	> 100 µM (inactive)	> 100 µM (inactive)	> 100 µM (inactive)	–	> 100 µM (inactive)	> 100 µM (inactive)	> 100 µM (inactive)	> 100 µM (inactive)	> 100 µM (inactive)	> 100 µM (inactive)	> 100 µM (inactive)	–	> 100 µM (inactive)	> 100 µM (inactive)	> 100 µM (inactive)	> 100 µM (inactive)
CNc1ncccc1Nc1cc(=O)n2c3cccnc3n(C)c2c1	> 100 µM (inactive)	> 100 µM (inactive)	> 100 µM (inactive)	> 100	–	34.1 µM (inactive)	> 100 µM (inactive)	> 100 µM (inactive)	> 100 µM (inactive)	–	74.6 µM (inactive)	38.9 µM (inactive)	–	> 100 µM (inactive)	–	> 100 µM (inactive)	> 100 µM (inactive)	21.8 µM (inactive)	> 100 µM (inactive)	> 100 µM (inactive)
COC(=O)C(CBr)CBr	0.762 µM (active)	1.27 µM (inactive)	2.96 µM (inactive)	1.71	1.79 µM (inactive)	10.4 µM (inactive)	1.57 µM (inactive)	2.6 µM (inactive)	1.69 µM (inactive)	2.2 µM (inactive)	6.78 µM (inactive)	4.03 µM (inactive)	10.8 µM (inactive)	8.75 µM (inactive)	3.9 µM (inactive)	–	1.27 µM (inactive)	5.56 µM (inactive)	9.42 µM (inactive)	16.6 µM (inactive)
CC(C)(C)OC(=O)c1cccnc1/C=N/O	67.1 µM (inactive)	> 100 µM (inactive)	> 100 µM (inactive)	51.9	> 100 µM (inactive)	> 100 µM (inactive)	> 100 µM (inactive)	> 100 µM (inactive)	68.2 µM (inactive)	> 100 µM (inactive)	> 100 µM (inactive)	> 100 µM (inactive)	> 100 µM (inactive)	> 100 µM (inactive)	> 100 µM (inactive)	> 100 µM (inactive)	58.6 µM (inactive)	> 100 µM (inactive)	> 100 µM (inactive)	–
COC(CC1(OC)OC(=O)C=C1N)OC (centres undefined)	> 100 µM (inactive)	> 100 µM (inactive)	> 100 µM (inactive)	> 100	> 100 µM (inactive)	> 100 µM (inactive)	> 100 µM (inactive)	> 100 µM (inactive)	> 100 µM (inactive)	> 100 µM (inactive)	> 100 µM (inactive)	> 100 µM (inactive)	> 100 µM (inactive)	> 100 µM (inactive)	> 100 µM (inactive)	> 100 µM (inactive)	> 100 µM (inactive)	> 100 µM (inactive)	> 100 µM (inactive)	–
Cc1ccsc1/C=N/Nc1ncccn1	> 100 µM (inactive)	> 100 µM (inactive)	> 100 µM (inactive)	> 100	> 100 µM (inactive)	> 100 µM (inactive)	> 100 µM (inactive)	> 100 µM (inactive)	> 100 µM (inactive)	> 100 µM (inactive)	> 100 µM (inactive)	> 100 µM (inactive)	> 100 µM (inactive)	> 100 µM (inactive)	> 100 µM (inactive)	–	> 100 µM (inactive)	> 100 µM (inactive)	> 100 µM (inactive)	> 100 µM (inactive)
Clc1ccc(C2=NCON=C2c2ccc(Cl)cc2)cc1	24.3 µM (inactive)	16.3 µM (inactive)	13.6 µM (inactive)	19.4	18.4 µM (inactive)	–	23.9 µM (inactive)	15.1 µM (inactive)	15.9 µM (inactive)	14.5 µM (inactive)	16.8 µM (inactive)	27.4 µM (inactive)	19.9 µM (inactive)	16.6 µM (inactive)	19 µM (inactive)	–	19.9 µM (inactive)	18.3 µM (inactive)	18.9 µM (inactive)	30.5 µM (inactive)
C/C(=N/NC(=S)Nc1cccc(Cl)c1)c1cccc(/C(C)=N\NC(=S)Nc2cccc(Cl)c2)n1	1.28 µM (inactive)	1.35 µM (inactive)	2.4 µM (inactive)	2.49	3.65 µM (inactive)	2.03 µM (inactive)	2.62 µM (inactive)	1.84 µM (inactive)	2.69 µM (inactive)	1.43 µM (inactive)	3.69 µM (inactive)	5.14 µM (inactive)	3.73 µM (inactive)	2.03 µM (inactive)	3.48 µM (inactive)	0.828 µM (active)	3.25 µM (inactive)	3.13 µM (inactive)	2.1 µM (inactive)	–
COc1ccc2c(c1)C(N)=C(Cc1ccncc1)C2=O	75.2 µM (inactive)	> 100 µM (inactive)	> 100 µM (inactive)	> 100	31.4 µM (inactive)	56.9 µM (inactive)	> 100 µM (inactive)	> 100 µM (inactive)	63.1 µM (inactive)	> 100 µM (inactive)	> 100 µM (inactive)	98.4 µM (inactive)	> 100 µM (inactive)	> 100 µM (inactive)	63 µM (inactive)	–	> 100 µM (inactive)	> 100 µM (inactive)	81.3 µM (inactive)	> 100 µM (inactive)
COC(=O)c1cccc2cccc(C(=O)Nc3ccc(C)cc3C)c12	3.72 µM (inactive)	69.5 µM (inactive)	> 100 µM (inactive)	> 100	61.8 µM (inactive)	> 100 µM (inactive)	> 100 µM (inactive)	> 100 µM (inactive)	48.5 µM (inactive)	> 100 µM (inactive)	> 100 µM (inactive)	93.8 µM (inactive)	> 100 µM (inactive)	> 100 µM (inactive)	> 100 µM (inactive)	37.6 µM (inactive)	> 100 µM (inactive)	> 100 µM (inactive)	> 100 µM (inactive)	–
O=c1cc(-c2cccnc2)[nH]c2cc3c(cc12)OCO3	6.65 µM (inactive)	13.9 µM (inactive)	4.8 µM (inactive)	3.9	13.5 µM (inactive)	4.47 µM (inactive)	5.07 µM (inactive)	4.67 µM (inactive)	17.1 µM (inactive)	3.15 µM (inactive)	10.3 µM (inactive)	> 73.3 µM (inactive)	8.04 µM (inactive)	2.73 µM (inactive)	12.2 µM (inactive)	–	6.38 µM (inactive)	4.16 µM (inactive)	3.3 µM (inactive)	33 µM (inactive)
CC(=O)c1ccc(NC(=O)C(=O)C(C(=O)/C=C/c2ccccc2)C2OC(=O)c3ccccc32)cc1 (centres undefined)	53.5 µM (inactive)	> 100 µM (inactive)	> 100 µM (inactive)	> 100	> 100 µM (inactive)	> 100 µM (inactive)	74.5 µM (inactive)	> 100 µM (inactive)	77.4 µM (inactive)	> 100 µM (inactive)	> 100 µM (inactive)	> 100 µM (inactive)	> 100 µM (inactive)	> 100 µM (inactive)	> 100 µM (inactive)	60.8 µM (inactive)	> 100 µM (inactive)	83 µM (inactive)	> 100 µM (inactive)	–
COc1cc(/C=c2/c3ccccc3n3c2cc(-c2ccccc2)[n+]3C)cc(OC)c1OC	3.52 µM (inactive)	1.69 µM (inactive)	2.62 µM (inactive)	4.39	3.48 µM (inactive)	6.19 µM (inactive)	2.74 µM (inactive)	3.69 µM (inactive)	2.97 µM (inactive)	2.19 µM (inactive)	3.94 µM (inactive)	3.46 µM (inactive)	2.58 µM (inactive)	2.69 µM (inactive)	2.82 µM (inactive)	–	3.82 µM (inactive)	3.7 µM (inactive)	3.69 µM (inactive)	5.47 µM (inactive)
OCCNc1ncnc2[nH]cnc12	–	> 100 µM (inactive)	> 100 µM (inactive)	> 100	> 100 µM (inactive)	> 100 µM (inactive)	> 100 µM (inactive)	> 100 µM (inactive)	> 100 µM (inactive)	> 100 µM (inactive)	> 100 µM (inactive)	> 100 µM (inactive)	> 100 µM (inactive)	> 100 µM (inactive)	> 100 µM (inactive)	–	> 100 µM (inactive)	> 100 µM (inactive)	> 100 µM (inactive)	> 100 µM (inactive)
